Patent US20230017045A1, “PYRIDINE AND PYRIMIDINE CARBOXYLATE HERBICIDES AND METHODS OF USE THEREOF” (Dow AgroSciences LLC, priority 2017, published 2023)

Test system: test plant species
Assay: Post-emergent herbicidal activity test (greenhouse, foliar spray, visual growth reduction)
Assay type: in vivo
Conditions: post-emergence, 336 h, ALOMY: blackgrass (Alopecurus myosuroides), 140 g ai/ha, 14 days after application, read-out: Visual Growth Reduction (%) 14 Days After Application, ALOMY
Outline: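 Visual percent injury (0-100) rated 14 d after treatment, relative to nontreated and solvent-blank plants. Test plants at first or second true leaf stage received an overhead track-sprayer application at 187 L/ha. Compounds were formulated in aqueous acetone/DMSO carrier containing crop oil concentrate and X-77 surfactant.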

SMILES | pest or weed control at 140 g/ha [%]
O=C(O)c1nc(-c2ccc3occc3c2)c(F)cc1Cl [F198, 6-(Benzofuran-5-yl)-3-chloro-5-fluoropicolinic acid] | 0 to 29
COc1c(Cl)ccc(-c2nc(C(=O)O)c(Cl)c(Cl)c2F)c1F [F73, 3,4-Dichloro-6-(4-chloro-2-fluoro-3-methoxyphenyl)-5-fluoropicolinic acid] | 0 to 29

Same assay, conditions: post-emergence, 336 h, AMARE: redroot pigweed (Amaranthus retroflexus), 140 g ai/ha, 14 days after application, read-out: Visual Growth Reduction (%) 14 Days After Application, AMARE

SMILES | pest or weed control at 140 g/ha [%]
O=C(O)c1nc(-c2ccc3occc3c2)c(F)cc1Cl [F198, 6-(Benzofuran-5-yl)-3-chloro-5-fluoropicolinic acid] | 0 to 29
COc1c(Cl)ccc(-c2nc(C(=O)O)c(Cl)c(Cl)c2F)c1F [F73, 3,4-Dichloro-6-(4-chloro-2-fluoro-3-methoxyphenyl)-5-fluoropicolinic acid] | 0 to 29

Same assay, conditions: post-emergence, 336 h, AVEFA: wild oat (Avena fatua), 140 g ai/ha, 14 days after application, read-out: Visual Growth Reduction (%) 14 Days After Application, AVEFA

SMILES | pest or weed control at 140 g/ha [%]
O=C(O)c1nc(-c2ccc3occc3c2)c(F)cc1Cl [F198, 6-(Benzofuran-5-yl)-3-chloro-5-fluoropicolinic acid] | 0 to 29
COc1c(Cl)ccc(-c2nc(C(=O)O)c(Cl)c(Cl)c2F)c1F [F73, 3,4-Dichloro-6-(4-chloro-2-fluoro-3-methoxyphenyl)-5-fluoropicolinic acid] | 0 to 29

Same assay, conditions: post-emergence, 336 h, CHEAL: lambsquarters (Chenopodium album), 140 g ai/ha, 14 days after application, read-out: Visual Growth Reduction (%) 14 Days After Application, CHEAL

SMILES | pest or weed control at 140 g/ha [%]
O=C(O)c1nc(-c2ccc3occc3c2)c(F)cc1Cl [F198, 6-(Benzofuran-5-yl)-3-chloro-5-fluoropicolinic acid] | 0 to 29
COc1c(Cl)ccc(-c2nc(C(=O)O)c(Cl)c(Cl)c2F)c1F [F73, 3,4-Dichloro-6-(4-chloro-2-fluoro-3-methoxyphenyl)-5-fluoropicolinic acid] | 95 to 100

Same assay, conditions: post-emergence, 336 h, CIRAR: canada thistle (Cirsium arvense), 140 g ai/ha, 14 days after application, read-out: Visual Growth Reduction (%) 14 Days After Application, CIRAR

SMILES | pest or weed control at 140 g/ha [%]
O=C(O)c1nc(-c2ccc3occc3c2)c(F)cc1Cl [F198, 6-(Benzofuran-5-yl)-3-chloro-5-fluoropicolinic acid] | 0 to 29
COc1c(Cl)ccc(-c2nc(C(=O)O)c(Cl)c(Cl)c2F)c1F [F73, 3,4-Dichloro-6-(4-chloro-2-fluoro-3-methoxyphenyl)-5-fluoropicolinic acid] | 0 to 29

Same assay, conditions: post-emergence, 336 h, CYPES: yellow nutsedge (Cyperus esculentus), 140 g ai/ha, 14 days after application, read-out: Visual Growth Reduction (%) 14 Days After Application, CYPES

SMILES | pest or weed control at 140 g/ha [%]
O=C(O)c1nc(-c2ccc3occc3c2)c(F)cc1Cl [F198, 6-(Benzofuran-5-yl)-3-chloro-5-fluoropicolinic acid] | 0 to 29
COc1c(Cl)ccc(-c2nc(C(=O)O)c(Cl)c(Cl)c2F)c1F [F73, 3,4-Dichloro-6-(4-chloro-2-fluoro-3-methoxyphenyl)-5-fluoropicolinic acid] | 0 to 29

Same assay, conditions: post-emergence, 336 h, DIGSA: crabgrass (Digitaria sanguinalis), 140 g ai/ha, 14 days after application, read-out: Visual Growth Reduction (%) 14 Days After Application, DIGSA

SMILES | pest or weed control at 140 g/ha [%]
O=C(O)c1nc(-c2ccc3occc3c2)c(F)cc1Cl [F198, 6-(Benzofuran-5-yl)-3-chloro-5-fluoropicolinic acid] | 0 to 29
COc1c(Cl)ccc(-c2nc(C(=O)O)c(Cl)c(Cl)c2F)c1F [F73, 3,4-Dichloro-6-(4-chloro-2-fluoro-3-methoxyphenyl)-5-fluoropicolinic acid] | 0 to 29

Same assay, conditions: post-emergence, 336 h, ECHCG: barnyardgrass (Echinochloa crus-galli), 140 g ai/ha, 14 days after application, read-out: Visual Growth Reduction (%) 14 Days After Application, ECHCG

SMILES | pest or weed control at 140 g/ha [%]
O=C(O)c1nc(-c2ccc3occc3c2)c(F)cc1Cl [F198, 6-(Benzofuran-5-yl)-3-chloro-5-fluoropicolinic acid] | 0 to 29
COc1c(Cl)ccc(-c2nc(C(=O)O)c(Cl)c(Cl)c2F)c1F [F73, 3,4-Dichloro-6-(4-chloro-2-fluoro-3-methoxyphenyl)-5-fluoropicolinic acid] | 0 to 29

Same assay, conditions: post-emergence, 336 h, IPOHE: ivy-leaf morning glory (Ipomoea hederacea), 140 g ai/ha, 14 days after application, read-out: Visual Growth Reduction (%) 14 Days After Application, IPOHE

SMILES | pest or weed control at 140 g/ha [%]
O=C(O)c1nc(-c2ccc3occc3c2)c(F)cc1Cl [F198, 6-(Benzofuran-5-yl)-3-chloro-5-fluoropicolinic acid] | 60 to 74

Same assay, conditions: post-emergence, 336 h, KCHSC: kochia (Bassia scoparia), 140 g ai/ha, 14 days after application, read-out: Visual Growth Reduction (%) 14 Days After Application, KCHSC

SMILES | pest or weed control at 140 g/ha [%]
O=C(O)c1nc(-c2ccc3occc3c2)c(F)cc1Cl [F198, 6-(Benzofuran-5-yl)-3-chloro-5-fluoropicolinic acid] | 0 to 29

Same assay, conditions: post-emergence, 336 h, ORYSA: rice (Oryza sativa), 140 g ai/ha, 14 days after application, read-out: Visual Growth Reduction (%) 14 Days After Application, ORYSA

SMILES | pest or weed control at 140 g/ha [%]
O=C(O)c1nc(-c2ccc3occc3c2)c(F)cc1Cl [F198, 6-(Benzofuran-5-yl)-3-chloro-5-fluoropicolinic acid] | 0 to 29
COc1c(Cl)ccc(-c2nc(C(=O)O)c(Cl)c(Cl)c2F)c1F [F73, 3,4-Dichloro-6-(4-chloro-2-fluoro-3-methoxyphenyl)-5-fluoropicolinic acid] | 0 to 29

Same assay, conditions: post-emergence, 336 h, SETFA: giant foxtail (Setaria faberi), 140 g ai/ha, 14 days after application, read-out: Visual Growth Reduction (%) 14 Days After Application, SETFA

SMILES | pest or weed control at 140 g/ha [%]
O=C(O)c1nc(-c2ccc3occc3c2)c(F)cc1Cl [F198, 6-(Benzofuran-5-yl)-3-chloro-5-fluoropicolinic acid] | 0 to 29
COc1c(Cl)ccc(-c2nc(C(=O)O)c(Cl)c(Cl)c2F)c1F [F73, 3,4-Dichloro-6-(4-chloro-2-fluoro-3-methoxyphenyl)-5-fluoropicolinic acid] | 0 to 29

Same assay, conditions: post-emergence, 336 h, SORVU: grain sorghum (Sorghum vulgare), 140 g ai/ha, 14 days after application, read-out: Visual Growth Reduction (%) 14 Days After Application, SORVU

SMILES | pest or weed control at 140 g/ha [%]
O=C(O)c1nc(-c2ccc3occc3c2)c(F)cc1Cl [F198, 6-(Benzofuran-5-yl)-3-chloro-5-fluoropicolinic acid] | 0 to 29
COc1c(Cl)ccc(-c2nc(C(=O)O)c(Cl)c(Cl)c2F)c1F [F73, 3,4-Dichloro-6-(4-chloro-2-fluoro-3-methoxyphenyl)-5-fluoropicolinic acid] | 0 to 29

Same assay, conditions: post-emergence, 336 h, STEME: common chickweed (Stellaria media), 140 g ai/ha, 14 days after application, read-out: Visual Growth Reduction (%) 14 Days After Application, STEME

SMILES | pest or weed control at 140 g/ha [%]
O=C(O)c1nc(-c2ccc3occc3c2)c(F)cc1Cl [F198, 6-(Benzofuran-5-yl)-3-chloro-5-fluoropicolinic acid] | 0 to 29
COc1c(Cl)ccc(-c2nc(C(=O)O)c(Cl)c(Cl)c2F)c1F [F73, 3,4-Dichloro-6-(4-chloro-2-fluoro-3-methoxyphenyl)-5-fluoropicolinic acid] | 0 to 29

Same assay, conditions: post-emergence, 336 h, TRZAS: wheat, spring (Triticum aestivum), 140 g ai/ha, 14 days after application, read-out: Visual Growth Reduction (%) 14 Days After Application, TRZAS

SMILES | pest or weed control at 140 g/ha [%]
O=C(O)c1nc(-c2ccc3occc3c2)c(F)cc1Cl [F198, 6-(Benzofuran-5-yl)-3-chloro-5-fluoropicolinic acid] | 0 to 29
COc1c(Cl)ccc(-c2nc(C(=O)O)c(Cl)c(Cl)c2F)c1F [F73, 3,4-Dichloro-6-(4-chloro-2-fluoro-3-methoxyphenyl)-5-fluoropicolinic acid] | 0 to 29
